Literature values in patent US9611229B2, “1,2,3-triazole-4-amine derivatives for the treatment of sigma receptor related diseases and disorders” (LABORATORIOS DEL DR. ESTEVE S.A., priority 2013, dated 2017).

Columns and labels:
sigma 2 (σ-2) site = sigma 2 (σ-2) site (Homo sapiens (Human), UniProt Q5BJF2)
sigma 1 (σ-1) site = sigma 1 (σ-1) site (Homo sapiens (Human), UniProt Q99720)

SKF 10047
affinity for the sigma 2 (σ-2) site (sigma 2 (σ-2) site): micromolar affinity
affinity for the sigma 1 (σ-1) site (sigma 1 (σ-1) site): nanomolar affinity
